The text below walks through data of patent US9131648B2, “Genes encoding chavicol/eugenol synthase from the creosote bush Larrea tridentata” (Washington State University, priority 2006, dated 2015).

Entries after “also recorded” stand apart in the source; their conditions may differ. Where two headings read alike, the source gives them in different places.

In series [1] the target is T1, LtPLRh1 (LtCES1) (Larrea tridentata, UniProt V5NR15). Put plainly: In vitro test of LtPLRh1 with PLR, PCBER and IFR substrates. It counts as biochemical.
The target of series [2] is T1, LtPLRh1 (LtCES1). The series can be described thus: LtPLRh1 (LtCES1) chavicol/eugenol synthase assays, kinetic parameters for monolignol ester substrates. The conditions noted are these: for Km values / Vmax values: PLR homologue in the creosote bush; for Vmax / kcat: Table 2, LtPLRh1 apparent. Format: biochemical. How it is done: (§1) Enzymatic assays. All assays were performed at 30° C. in 250 μl of the corresponding buffered solutions (at 100 mM buffer concentration) containing 0.5 μg […]1) Rh1 and 1.0 mM NADPH, and were terminated by addition of 25 μl glacial acetic acid and freezing. […] Assays were carried out for 1 to 120 min; controls included both boiled enzyme extracts and omission of substrates. Kinetic parameters (Km and Vmax): Three sets of triplicate assays were carried out for 5 min in Bis-Tris propane buffer at pH 7.55, and contained different concentrations of p-coumaryl acetate (48), p-coumaryl coumarate (50) or coniferyl acetate (49) (3.2 μM-1 mM).

The target in another series is T2, ObEGS1 (Ocimum basilicum, UniProt Q15GI4).
T2 sequence (Q15GI4 1-314): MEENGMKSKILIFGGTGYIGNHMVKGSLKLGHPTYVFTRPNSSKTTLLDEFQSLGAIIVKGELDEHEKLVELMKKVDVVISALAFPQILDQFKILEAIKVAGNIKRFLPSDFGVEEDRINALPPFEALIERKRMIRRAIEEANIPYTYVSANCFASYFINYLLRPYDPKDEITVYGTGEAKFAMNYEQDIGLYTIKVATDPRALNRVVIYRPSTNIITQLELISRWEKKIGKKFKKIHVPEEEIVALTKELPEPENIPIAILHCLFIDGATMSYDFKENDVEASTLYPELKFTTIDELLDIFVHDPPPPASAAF
The conditions noted are these: cited from earlier work; for Vmax / kcat: ObEGS1.

The target of the next series is T3, PhIGS1 (Petunia hybrida, UniProt Q15GI3).
T3 sequence (Q15GI3 1-323): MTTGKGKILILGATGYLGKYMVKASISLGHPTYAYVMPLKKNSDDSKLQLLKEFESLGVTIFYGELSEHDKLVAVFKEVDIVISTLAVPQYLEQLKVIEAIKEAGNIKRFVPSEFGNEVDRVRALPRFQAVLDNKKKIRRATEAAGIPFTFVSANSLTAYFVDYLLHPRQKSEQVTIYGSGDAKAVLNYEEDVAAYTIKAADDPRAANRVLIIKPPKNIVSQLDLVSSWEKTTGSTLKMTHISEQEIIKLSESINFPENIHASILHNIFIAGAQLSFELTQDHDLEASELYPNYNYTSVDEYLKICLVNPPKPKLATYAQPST
The conditions noted are these: cited from earlier work; for Vmax / kcat: PhIGS1.

Series [3] deals with basil CS/ES and petunia IES. The settings on record: range over basil CS/ES and petunia IES, cited from earlier work.
For another series, the target named is T4, PLR_Tp1 (Thuja plicata, UniProt Q9LD14).
T4 sequence (Q9LD14 1-313): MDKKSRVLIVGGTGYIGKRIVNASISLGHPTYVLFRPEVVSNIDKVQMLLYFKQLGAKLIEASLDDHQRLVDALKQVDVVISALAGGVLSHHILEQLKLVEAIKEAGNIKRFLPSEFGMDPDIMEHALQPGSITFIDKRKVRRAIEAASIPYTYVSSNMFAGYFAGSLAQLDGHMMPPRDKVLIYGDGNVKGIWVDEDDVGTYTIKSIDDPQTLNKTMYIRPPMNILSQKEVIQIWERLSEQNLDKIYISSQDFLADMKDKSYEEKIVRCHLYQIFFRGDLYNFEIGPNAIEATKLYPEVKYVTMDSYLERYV
The conditions noted are these: Kim et al., manuscript in preparation (34), cited from earlier work.

Substrate in series [4]: CC(=O)OC/C=C/c1ccc(O)cc1
The series can be described thus: LtPLRh1 (LtCES1) chavicol/eugenol synthase assays, kinetic parameters for monolignol ester substrates. Format: biochemical, Larrea tridentata. The conditions noted are these: other: Table 1, Bis-Tris propane pH 7.55, 30° C., 1.0 mM NADPH, apparent values. On the procedure:
as §1

Substrate in series [5]: COc1cc(/C=C/COC(C)=O)ccc1O
The series is described as above. It counts as biochemical, Larrea tridentata. The conditions noted are these: other: Table 1, Bis-Tris propane pH 7.55, 30° C., 1.0 mM NADPH, apparent values. How it is done: as §1

Substrate in series [6]: O=C(/C=C/c1ccc(O)cc1)OC/C=C/c1ccc(O)cc1
The series is described as above. It counts as biochemical, Larrea tridentata. The settings on record: other: Table 1, Bis-Tris propane pH 7.55, 30° C., 1.0 mM NADPH, apparent values. On the procedure:
as §1

Series [7] can be described thus: Characterisation of recombinant LtPLRh1: pH optimum and efficiency versus homologues. Format: biochemical, Larrea tridentata. The settings on record: from previously reported kinetic parameters (26). On the procedure:
Enzymatic assays. All assays were performed at 30° C. in 250 μl of the corresponding buffered solutions (at 100 mM buffer concentration) containing 0.5 μg LtPL LtPLRh1 (LtCES1) Rh1 and 1.0 mM NADPH, and were terminated by addition of 25 μl glacial acetic acid and freezing. Chavicol/eugenol synthase activity assays were individually performed in Bis-Tris propane buffer (pH 7.55) containing 0.4 mM p-coumaryl coumarate (50), p-coumaryl acetate (48) or coniferyl acetate (49). Assays were carried out for 1 to 120 min; controls included both boiled enzyme extracts and omission of substrates.
Kinetic parameters (Km and Vmax): Three sets of triplicate assays were carried out for 5 min in Bis-Tris propane buffer at pH 7.55, and contained different concentrations of p-coumaryl acetate (48), p-coumaryl coumarate (50) or coniferyl acetate (49) (3.2 μM-1 mM).

Broadly, the kcat is the number of substrate molecules converted per active site and unit of time at saturation. In general, Km refers to the concentration of substrate that gives half-maximal velocity. For orientation: kcat/Km means the turnover number divided by the Michaelis constant.

Take `COc1ccc(-c2coc3cc(O)cc(O)c3c2=O)cc1` [biochanin A (74), biochanin A]: at LtPLRh1 (LtCES1) [1], the “activity of LtPLRh1 towards the compound as substrate” value (“activity … as substrate” below) is “at best marginal activity; also recorded: do not serve as substrates”.
For `COc1cc(/C=C/COC(C)=O)ccc1O` [coniferyl acetate (49), coniferyl acetate], the “efficiency of reduction by LtPLRh1 relative to reported homologues in basil and petunia” value on LtPLRh1 (LtCES1) [2] was more than 100 fold. Besides, the Km values result at LtPLRh1 (LtCES1) [2] was “a few hundred”. Besides, the Vmax values entry on LtPLRh1 (LtCES1) [2] is “a few hundred”. The Vmax at LtPLRh1 (LtCES1) [2] is recorded as 190 pkat/μg; at ObEGS1 (Table 1), 20 pkat μg^−1 prot; on ObEGS1 (Table 2) it was 20 pkat/μg; at PhIGS1 (Table 1) it was 7 pkat μg^−1 prot; on PhIGS1 (Table 2) it was 7 pkat/μg; in [3], 7-20 pkat μg^−1 protein. Also, the kcat was 6.46 s⁻¹ at LtPLRh1 (LtCES1) [2]; 0.7 s⁻¹ on ObEGS1 (Table 1); 0.7 s⁻¹ on ObEGS1 (Table 2); 0.3 s⁻¹ at PhIGS1 (Table 1); 0.3 s⁻¹ at PhIGS1 (Table 2). Further, the Km is 5100 µM at ObEGS1 (Table 1, ObEGS1, Koeduka et al. 2006); 5100 µM on ObEGS1 (Table 2, ObEGS1, as reported in (26)); 1600 µM on PhIGS1 (Table 1, PhIGS1, Koeduka et al. 2006); 1600 µM on PhIGS1 (Table 2, PhIGS1, as reported in (26)); 1600 to 5100 µM in series [3] (read-out: substrate affinities (Km)).
For the molecule `COc1cc(C2Oc3c(OC)cc(/C=C/CO)cc3C2CO)ccc1O` (centres unmarked) [dehydrodiconiferyl alcohol (56), dehydrodiconiferyl alcohol], the “activity … as substrate” value on LtPLRh1 (LtCES1) [1] is “at best marginal activity”.
As to `O=c1c(-c2ccc(O)cc2)coc2cc(O)cc(O)c12` [genistein (73), genistein], the “activity … as substrate” value at LtPLRh1 (LtCES1) [1] is “at best marginal activity; also recorded: do not serve as substrates”.
Take `C[C@@H]1[C@H](C)[C@@H](c2ccc(O)cc2)O[C@@H]1c1ccc(O)cc1` [larreatricin (62), larreatricin]: the “activity … as substrate” value at LtPLRh1 (LtCES1) [1] was “at best marginal activity”.
Still for that read-out and setting: the value for `C/C=C/c1cc(OC)c2c(c1)[C@H](C)[C@@H](c1ccc(O)c(OC)c1)O2` [licarin A (64), licarin A] was “at best marginal activity”.
Regarding `COc1cc([C@H]2OC[C@@H]3C(c4cc(OC)c(O)c(OC)c4)OC[C@H]23)ccc1O` (some centres unmarked) [medioresinol (69), medioresinol], the “PLR-catalyzed reduction (serves as substrate)” value (from here on “PLR-catalyzed reduction”) on PLR_Tp1 is on record as “uses several p-hydroxylated phenylpropanoid substrates”; at PLR_Tp1 (listed as Medioresinol (69)) it was “additional PLR substrates”.
Consider `COc1cc([C@H]2O[C@@H](c3ccc(O)c(OC)c3)[C@H](C)[C@@H]2C)ccc1O` [nectandrin B (72), nectandrin B], for which, at LtPLRh1 (LtCES1) [1], the “activity … as substrate” value was “at best marginal activity; also recorded: do not serve as substrates”.
For `CC(=O)OC/C=C/c1ccc(O)cc1` [p-coumaryl acetate (48), p-coumaryl acetate], at LtPLRh1 (LtCES1) [2], the Km values entry is “a few hundred”, the Vmax values result is reported as “a few hundred”, the Vmax was 200 pkat/μg and the kcat was 6.80 s⁻¹.
On to `O=C(/C=C/c1ccc(O)cc1)OC/C=C/c1ccc(O)cc1` [p-coumaryl coumarate (50), p-coumaryl coumarate], for which, at LtPLRh1 (LtCES1) [2], the Km values result is listed as “a few hundred”, the Vmax values entry is recorded as “a few hundred”, the Vmax worked out at 75 pkat/μg and the kcat amounted to 2.55 s⁻¹.
With `c1cc2c(cc1[C@H]1OC[C@H]3[C@@H]1CO[C@@H]3c1ccc3c(c1)OCO3)OCO2` [sesamin (71), sesamin], the “PLR-catalyzed reduction” value at PLR_Tp1 is reported as “fails to reduce; also recorded: does not undergo PLR-catalyzed reduction”.
For the molecule `COc1cc([C@H]2OC[C@H]3[C@@H]2CO[C@@H]3c2cc(OC)c(O)c(OC)c2)cc(OC)c1O` [syringaresinol (70), syringaresinol], at PLR_Tp1, the “PLR-catalyzed reduction” value was “uses several p-hydroxylated phenylpropanoid substrates; also recorded: additional PLR substrates”.
Regarding pinoresinol [pinoresinol (54)], the “activity … as substrate” value at LtPLRh1 (LtCES1) [1] was “at best marginal activity”. At PLR_Tp1, the “PLR-catalyzed reduction” value is listed as “uses several p-hydroxylated phenylpropanoid substrates”.

B1: LtPLRh1 (LtCES1) (Larrea tridentata) (protein)
chain: MAQKSKILIIGGTGYIGKFVVEASAKAGRPTFALVRESTVSDPVKGKLIANFKNLGVNILHGDLNDHESLVKAIKKVDVVISTVGNFQIADQVKIIAAIKAAGNVKRFFPSEFGNDVDRTHAVEPAKSTFEMKAQLRRTIEAEGIPYTYVSSNFFAGYFLPVLGQVGVTAPPRDKVTILGDGNQKAVFNKEDDIGTYTIRAADDPRTLNKILYIRPPRNTYSMNELVALWEKKIGKTLEKTYVPEEQLLKNIQEAEIPWNVVLAINHSVFVKGDHTNFAIKPSFGVEASELYPDVKYTTVEEYLSQFV
Regarding B1, in [4], the Michaelis constant (Km) stood at 350 µM, the Vmax stood at 12 µmol/min/mg, the kcat turned out to be 6.8 s⁻¹ and the kcat/Km was 19500 M⁻¹ s⁻¹. Also, in series [5], the Km came to 290 µM, the Vmax is 11.4 µmol/min/mg, the kcat worked out at 6.46 s⁻¹ and the kcat/Km came out at 22000 M⁻¹ s⁻¹. Besides, in [6], the Km is 210 µM, the Vmax was 4.5 µmol/min/mg, the kcat was found to be 2.55 s⁻¹ and the kcat/Km was 12000 M⁻¹ s⁻¹.

B2: LtPLRh1: pinoresinol-lariciresinol reductase homologue from Larrea tridentata, chavicol/eugenol synthase, SEQ ID NO:2, recombinant 34 kDa (protein)
chain: MAQKSKILIIGGTGYIGKFVVEASAKAGRPTFALVRESTVSDPVKGKLIANFKNLGVNILHGDLNDHESLVKAIKKVDVVISTVGNFQIADQVKIIAAIKAAGNVKRFFPSEFGNDVDRTHAVEPAKSTFEMKAQLRRTIEAEGIPYTYVSSNFFAGYFLPVLGQVGVTAPPRDKVTILGDGNQKAVFNKEDDIGTYTIRAADDPRTLNKILYIRPPRNTYSMNELVALWEKKIGKTLEKTYVPEEQLLKNIQEAEIPWNVVLAINHSVFVKGDHTNFAIKPSFGVEASELYPDVKYTTVEEYLSQFV
modifications: Larrea tridentate
Turning to B2, the “efficiency/activity relative to the enzymes reported in basil and petunia” value in series [7] is more than 100 fold; in [7] (listed as LtPLRh1 (LtCES1)), “over 100 fold”.
